The values that follow come from patent US7960393B2, “Pyrimidine derivatives useful for the treatment of diseases mediated by CRTH2” (Actimis Pharmaceuticals, Inc., priority 2002, dated 2011).

The test has as its target T1, human CRTH2 (Homo sapiens, UniProt Q9Y5Y4).
T1 construct: expressed in transfected cells; host or cells: L1.2 cells, pEAK expression vector, puromycin-selected
T1 sequence (Q9Y5Y4 1-395): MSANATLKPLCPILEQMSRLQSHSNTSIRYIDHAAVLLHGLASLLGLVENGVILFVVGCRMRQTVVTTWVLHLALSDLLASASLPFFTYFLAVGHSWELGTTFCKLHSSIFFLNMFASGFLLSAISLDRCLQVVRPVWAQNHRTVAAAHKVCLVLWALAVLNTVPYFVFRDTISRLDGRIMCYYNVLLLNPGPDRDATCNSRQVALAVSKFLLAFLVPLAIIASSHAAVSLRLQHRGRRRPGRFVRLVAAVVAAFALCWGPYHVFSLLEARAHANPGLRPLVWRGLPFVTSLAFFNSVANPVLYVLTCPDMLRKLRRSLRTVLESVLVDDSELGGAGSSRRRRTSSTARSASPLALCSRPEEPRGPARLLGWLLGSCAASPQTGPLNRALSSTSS
Nature of the test: Measurement of Ca2+ mobilization in the human CRTH2-transfected L1.2 cell line (Assay 1). Format: cell-based. The settings on record: PGD2-induced Ca2+ mobilization in CRTH2-transfected L1.2 cells; compounds as yielded by solid phase synthesis, purity about 40 to 90%; read-out: Activity class. The protocol:
Human CRTH2 cDNA was amplified from human eosinophil cDNA with gene specific primers containing restriction sites for cloning into pEAK vector (Edge Bio Systems). The human CRTH2 cDNA was cloned into the mammalian expression vector pEAK. This expression plasmid (40 μg) was transfected into L1.2 cells, at a cell density of 1×10^7 cells/500 μl, by using electroporation apparatus (Gene Pulser II, BioRad) at 250V/1,000 μF. One day after the transfection, puromycin (1 μg/ml, Sigma) was added into the cell culture plates. Two weeks after the transfection, grown cells were picked up for further growth.
[Measurement of Ca^2+ Mobilization in the Human CRTH2-Transfected L1.2 Cell Line] (Assay 1)
Ca^2+ loading buffer was prepared by mixing 5 μl of Fluo-3AM (2 mM in DMSO, final 1 μM, Molecular Probes) and 10 μl of pluronic F-127 (Molecular Probes) and diluting the resulting mixture in 10 ml of Ca^2+ assay buffer (20 mM HEPES pH 7.6, 0.1% BSA, 1 mM probenecid, Hanks' solution). The CRTH2 transfected cells which were prepared in Example 1 were washed with PBS, resuspended in Ca^2+ loading buffer at 1×10^7 cells/ml, and incubated for 60 min at room temperature. After incubation, cells were washed and resuspended in Ca^2+ assay buffer, then dispensed into transparent-bottom 96-well plates (#3631, Costar) at 2×10^5 cells/well. Cells were incubated with various concentrations of test compound for 5 minutes at room temperature. The emitted 480 nm fluorescence was measured on FDSS6000, a Ca^2+-measurement apparatus (Hamamatsu Photonics, Hamamatsu, Japan).
Assay results in Assay 1 are shown in Examples and tables of the Examples below. The data corresponds to the compounds as yielded by solid phase synthesis and thus to levels of purity of about 40 to 90%. For practical reasons, the compounds are grouped in four classes of activity as follows: IC50=A(< or =)10 nM<B(< or =)100 nM<C(< or =)500 nM<D
`CN(C)c1nc(Cc2ccc(NC(=O)c3ccc(S(N)(=O)=O)cc3)cc2)nc(Cl)c1CC(=O)O` [Example 1-40]: the IC50 is 0.1 to 0.5 µM. As for `CN(CC(=O)NC1CCCC1)c1nc(Cc2ccc(NC(=O)c3ccc4ccccc4c3)cc2)ncc1CC(=O)O` [Example 2-2], the figure is less than 0.01 µM; as for `CN(CC(=O)N1CCCC1)c1nc(Cc2ccc(NC(=O)c3ccc4ccccc4c3)cc2)ncc1CC(=O)O` [Example 2-3], less than 0.01 µM; as for `CN(CC(=O)NC1CCCC1)c1nc(Cc2ccc(NC(=O)c3ccccc3)cc2)ncc1CC(=O)O` [Example 2-4], 0.01 to 0.1 µM. Under `CN(CC(=O)NC1CCCC1)c1nc(Cc2ccc(NC(=O)/C=C/c3ccccc3)cc2)ncc1CC(=O)O` [Example 2-5] stands less than 0.01 µM; under `CN(C)c1nc(Cc2ccc(NC(=O)c3ccc(Cl)cc3)cc2)ncc1CC(=O)O` [Example 2-6], less than 0.01 µM; under `COc1cccc(C(=O)Nc2ccc(Cc3ncc(CC(=O)O)c(N(C)C)n3)cc2)c1` [Example 2-14], 0.01 to 0.1 µM. Under `CN(C)c1nc(Cc2ccc(NC(=O)c3ccc(Br)cc3)cc2)ncc1CC(=O)O` [Example 2-16] stands less than 0.01 µM.

For the molecule `CN(C)c1nc(Cc2ccc(NC(=O)/C=C/c3ccc(C(F)(F)F)cc3)cc2)ncc1CC(=O)O` [Example 2-17], the IC50 was less than 0.01 µM. For `CC(c1ccc(NC(=O)c2ccc3ccccc3c2)cc1)c1ncc(CC(=O)O)c(N(C)C)n1` (stereo not drawn) [Example 2-18], the IC50 was less than 0.01 µM. As for `CN(C)c1nc(Cc2ccc(NC(=O)c3ccc(OC(F)(F)F)cc3)cc2)ncc1CC(=O)O` [Example 2-19], the figure is less than 0.01 µM; as for `CN(C)c1nc(Cc2ccc(NC(=O)c3ccc(F)cc3)cc2)ncc1CC(=O)O` [Example 2-20], 0.01 to 0.1 µM. Under `O=C(O)Cc1c(Cl)nc(Cc2ccc(NC(=O)c3ccc4ccccc4c3)cc2)nc1N1CCCC1` [Example 3-1, {4-Chloro-2-[4-(2-naphthoylamino)benzyl]-6-pyrrolidin-1-ylpyrimidin-5-yl}acetic acid] stands less than 0.01 µM. Under `CN(CC(=O)O)c1nc(Cc2ccc(NC(=O)c3ccc4ccccc4c3)cc2)nc(Cl)c1CC(=O)O` [Example 3-2] stands 0.01 to 0.1 µM. With `CN(c1nc(Cc2ccc(NC(=O)c3ccc4ccccc4c3)cc2)nc(Cl)c1CC(=O)O)C1CCCCC1` [Example 3-3], the IC50 is less than 0.01 µM. As for `CC(C)N(C)c1nc(Cc2ccc(NC(=O)c3ccc4ccccc4c3)cc2)nc(Cl)c1CC(=O)O` [Example 3-4], the figure is less than 0.01 µM; as for `O=C(O)Cc1c(Cl)nc(Cc2ccc(NC(=O)c3ccc4ccccc4c3)cc2)nc1N1CCOCC1` [Example 3-6], less than 0.01 µM.

For the molecule `O=C(O)Cc1c(Cl)nc(Cc2ccc(NC(=O)c3ccc4ccccc4c3)cc2)nc1N1CCCCC1` [Example 3-7], the IC50 was less than 0.01 µM. As for `CN(C)c1nc(Cc2ccc(NC(=O)c3ccc4cc[nH]c4c3)cc2)nc(Cl)c1CC(=O)O` [Example 3-8], the figure is less than 0.01 µM; as for `COc1nc(Cc2ccc(NC(=O)c3ccc4ccccc4c3)cc2)nc(Cl)c1CC(=O)O` [Example 3-9], less than 0.01 µM; as for `O=C(O)Cc1c(Cl)nc(Cc2ccc(NC(=O)c3ccc4ccccc4c3)cc2)nc1N1CC=CC1` [Example 3-10], less than 0.01 µM.

Regarding `CCN(CC)c1nc(Cc2ccc(NC(=O)c3ccc4ccccc4c3)cc2)nc(Cl)c1CC(=O)O` [Example 3-11], the IC50 lay in the range of 0.01 to 0.1 µM. As for `CCN(C)c1nc(Cc2ccc(NC(=O)c3ccc4ccccc4c3)cc2)nc(Cl)c1CC(=O)O` [Example 3-12], the figure is less than 0.01 µM; as for `O=C(O)Cc1c(Cl)nc(Cc2ccc(NC(=O)c3ccc4ccccc4c3)cc2)nc1N1CCC(O)C1` (stereo not drawn) [Example 3-13], less than 0.01 µM.

For the molecule `O=C(O)Cc1c(Cl)nc(Cc2ccc(NC(=O)c3ccc4ccccc4c3)cc2)nc1N1CCC[C@H]1C(=O)O` [Example 3-14], the IC50 fell in the range of 0.01 to 0.1 µM. As for `CSc1ccc(C(=O)Nc2ccc(Cc3nc(Cl)c(CC(=O)O)c(N4CCCC4)n3)cc2)cc1` [Example 3-15], the figure is less than 0.01 µM; as for `COc1ccc(C(=O)Nc2ccc(Cc3nc(Cl)c(CC(=O)O)c(N4CCCC4)n3)cc2)cc1Cl` [Example 3-16], less than 0.01 µM; as for `CN(CC(=O)NC1CCCC1)c1nc(Cc2ccc(NC(=O)Nc3ccccc3)cc2)nc(Cl)c1CC(=O)O` [Example 4-1, {2-{4-[(Anilinocarbonyl)amino]benzyl}-4-chloro-6-[[2-(cyclopentylamino)-2-oxoethyl](methyl)amino]pyrimidin-5-yl}acetatic acid], 0.01 to 0.1 µM. As for `CN(CC(=O)NC1CCCC1)c1nc(Cc2ccc(NC(=O)NCc3ccccc3)cc2)nc(Cl)c1CC(=O)O` [Example 4-2], the IC50 was in the range of 0.01 to 0.1 µM. With `CN(CC(=O)NC1CCCC1)c1nc(Cc2ccc(NC(=O)NCCc3ccccc3)cc2)nc(Cl)c1CC(=O)O` [Example 4-3], the IC50 is 0.01 to 0.1 µM. Under `CN(CC(=O)NC1CCCC1)c1nc(Cc2ccc(NC(=O)Nc3ccc4ccccc4c3)cc2)nc(Cl)c1CC(=O)O` [Example 4-4] stands 0.01 to 0.1 µM.

`CN(C)c1nc(Cc2ccc(NC(=O)NCc3ccccc3)cc2)ncc1CC(=O)O` [Example 4-5]: the IC50 fell in the range of 0.01 to 0.1 µM. Consider `CN(Cc1ccccc1)C(=O)Nc1ccc(Cc2ncc(CC(=O)O)c(N(C)C)n2)cc1` [Example 4-6], for which the IC50 fell in the range of 0.1 to 0.5 µM. As for `CN(CC(=O)NC1CCCC1)c1nc(Cc2ccc(NCC3CCCCC3)cc2)nc(Cl)c1CC(=O)O` [Example 5-1, {4-Chloro-2-{4-[(cyclohexylmethyl)amino]benzyl}-6-[[2-(cyclopentylamino)-2-oxoethyl](methyl)amino]pyrimidin-5-yl}acetic add], the figure is greater than 0.5 µM. Under `CN(CC(=O)NC1CCCC1)c1nc(Cc2ccc(NC/C=C/c3ccccc3)cc2)nc(Cl)c1CC(=O)O` [Example 5-4] stands 0.1 to 0.5 µM; under `CCCCCCCNc1ccc(Cc2nc(Cl)c(CC(=O)O)c(N(C)CC(=O)NC3CCCC3)n2)cc1` [Example 5-5], greater than 0.5 µM; under `CN(C)c1nc(Cc2ccc(N(C)C(=O)c3ccc(Cl)cc3)cc2)nc(Cl)c1CC(=O)O` [Example 6-1, [4-Chloro-2-{4-[(4-chlorobenzoyl)(methyl)amino]benzyl}-6-(dimethylamino)pyrimidin-5-yl]acetic acid], 0.1 to 0.5 µM.

As for `CN(C)c1nc(Cc2ccc(N(C)C(=O)/C=C/c3ccccc3)cc2)nc(Cl)c1CC(=O)O` [Example 6-2], the IC50 is greater than 0.5 µM. As for `CN(C)c1nc(Cc2ccc(N(C)C(=O)c3ccc4ccccc4n3)cc2)nc(Cl)c1CC(=O)O` [Example 6-3], the figure is greater than 0.5 µM; as for `CN(C)c1nc(Cc2ccc(NC(=O)c3ccc4ccccc4c3)cc2)nc(N2CCOCC2)c1CC(=O)O` [Example 7-1, {4-(Dimethylamino)-6-morpholin-4-yl-2-[4-(2-naphthoylamino)benzyl]pyrimidin-5-yl}acetic acid], 0.01 to 0.1 µM. As for `CN(C)c1nc(Cc2ccc(NC(=O)c3ccc4ccccc4c3)cc2)nc(N(C)C)c1CC(=O)O` [Example 7-3], the figure is 0.01 to 0.1 µM; as for `CN(C)c1nc(Cc2ccc(NC(=O)c3ccc4ccccc4c3)cc2)nc(N2CCCC2)c1CC(=O)O` [Example 7-4], 0.01 to 0.1 µM.

As for `CN(C)c1nc(Cc2ccc(NC(=O)c3ccc4ccccc4c3)cc2)nc(N2CCCCC2)c1CC(=O)O` [Example 7-5], the IC50 lay within 0.01 to 0.1 µM. Under `CN(C)c1nc(Cc2ccc(NC(=O)c3ccc(Cl)c(Cl)c3)cc2)nc(N(C)C)c1CC(=O)O` [Example 7-6] stands less than 0.01 µM; under `CN(C)c1nc(Cc2ccc(NC(=O)/C=C/c3ccccc3)cc2)nc(N(C)C)c1CC(=O)O` [Example 7-7], less than 0.01 µM; under `Cc1nc(Cc2ccc(NC(=O)c3ccc4ccccc4c3)cc2)nc(N2CCCC2)c1CC(=O)O` [Example 8-1, {4-Methyl-2-[4-(2-naphthoylamino)benzyl]-6-pyrrolidin-1-ylpyrimidin-5-yl}acetic acid], less than 0.01 µM. On to `Cc1nc(Cc2ccc(NC(=O)c3ccc(Cl)c(Cl)c3)cc2)nc(N2CCCC2)c1CC(=O)O` [Example 8-2], for which the IC50 is less than 0.01 µM. As for `Cc1nc(Cc2ccc(NC(=O)c3ccc4ccccc4c3)cc2)nc(N(C)C)c1CC(=O)O` [Example 8-3], the figure is less than 0.01 µM.
